Data from patent publication US20210207099A1, “METHODS AND COMPOSITIONS FOR GENERATING CELLS OF ENDODERMAL LINEAGE AND BETA CELLS AND USES THEREOF” (priority 2018, published 2021).

Tests used:
[1] = system: Stage 6 cells; test: Perifusion GSIS with sequential secretagogue challenges; format: cell-based, human; conditions: for insulin secretion during second challenge, secretagogue added to 20 mM glucose: 30 mM KCL, 20 mM L-Arginine, 300 μM Tolbutamide, 100 μM IBMX, 10 nM Extendin-4
Method: The system used a high precision 8-channel dispenser pump (ISMATEC; ISM931C) in conjunction with 0.015″ inlet and outlet two-stop tubing (ISMATEC; 070602-04i-ND) connected to 275-μl cell chamber (BioRep; Pen-Chamber) and dispensing nozzle (BioRep; PERI-NOZZLE) using 0.04″ connection tubbing (BioRep; Peri-TUB-040). Solutions, tubing, and cells were maintained at 37° C. in a water bath. Stage 6 clusters and cadaveric human islets were washed with KRB twice and resuspended in 2 mM glucose KRB. Cells were then loaded onto a Biorep perifusion chamber sandwiched between two layers of Bio-Gel P-4 polyacrylamide beads (Bio-Rad; 150-4124). Cells were perfused with 2 mM glucose KRB for 90 min prior to sample collection for equilibration. For single high glucose challenges, sample collection was started with cells exposed to 2 mM glucose KRB for 12 min, followed by 24 min of 20 mM glucose KRB, and back to 2 mM glucose KRB for an additional 12 min. For multiple secretagogue challenges, sample collection was started with cells exposed to 2 mM glucose KRB for 6 min, followed by 12 min of 20 mM glucose KRB, 6 min 2 mM glucose KRB, 12 min of 20 mM glucose KRB plus treatment, and finally 6 min of 2 mM glucose KRB. Treatments with multiple secretagogues were as follows: 20 mM glucose only, 10 nM Extendin-4 (MilliporeSigma; E7144), 100 μM IBMX (MilliporeSigma; 15879), 300 μM Tolbutamide (MilliporeSigma; T0891), 20 mM L-Arginine (MilliporeSigma; A5006), and 30 mM KCL (Thermo Fisher; BP366500). Effluent was collected at a 100 μl/min flow rate with 2-4 min collection points. After sample collection, clusters were collected and lysed in 10 mM Tris (MilliporeSigma; T6066), 1 mM EDTA, and 0.2% Triton-X 100 solution and DNA was quantified using Quant-iT Picogreen dsDNA assay kit (Invitrogen; P7589). Insulin secretion was quantified using the Human Insulin Elisa kit.

[2] = system: TGFβ signaling (phosphorylated SMAD); test: Western blot of SMAD 2/3 phosphorylation in Stage 6 cells; format: cell-based, human; conditions: Alk5i versus DMSO
Method: Protein was extracted from cell clusters after washing with PBS by placing in western blot lysis buffer consisting 50 mM HEPES, 140 mM NaCl (MilliporeSigma; 7647-14-5), 1 mM EDTA (MilliporeSigma, 1233508), 1% Triton X-100, 0.1% Na-deoxycholate (MilliporeSigma: D6750), 0.1% SDS (ThermoScientific; 24730020), 1 mM Na3VO4 (MilliporeSigma; 450243), 10 mM NaF (MilliporeSigma; S7920), and 1% Protease Inhibitor Cocktail (MilliporeSigma; p8340), incubating on a shaker for 15 min at 4° C., and centrifuging at 10000 RCF for 10 min at 4° C. Protein amount was quantified with the Pierce BCA Protein Assay (Thermo Scientific; 23228). Protein (30 μg) was loaded onto a 4-20% gradient polyacrylamide gel (Invitrogen; SP04200BOX), resolved by electrophoresis, and transferred onto a 0.45 μm nitrocellulose membrane (BioRad; 1620115). The nitrocellulose membrane was blocked with Blotting Grade Blocker (BioRad; 170-6404) and incubated with rabbit-anti-phospho-SMAD⅔ 1:1000 (Cell Signaling Technologies; 8828) and rabbit-anti-Actin 1:1000 (Santa Cruz Biotechnology; SC1616) antibodies in blocker overnight at 4° C. Membrane was washed and stained with rabbit secondary antibody 1:2500 (Jackson Immuno Research Laboratories; 211-032-171) in blocker for 2 hr at 4° C. and developed using SuperSignal West Femto (Thermo Scientific; 34096). Images were taken on an Odyssey FC (Li-COR). After imaging, the nitrocellulose membrane was stripped using Restore Western Blot Stripping Buffer (Thermo Scientific; 21059), incubated with rabbit-anti-SMAD⅔ (Cell Signaling Technologies; 8685) antibody overnight at 4° C., washed and stained with rabbit secondary antibody 1:2500 in blocker for 2 hr 4° C., developed using SuperSignal West Femto, and imaged using the Odyssey FC.

[3] = system: Stage 5 cells
Method: To initiate differentiation, undifferentiated cells were single-cell dispersed using Accutase and seeded at 6×10^5 cells/mL in mTeSR1+10 μM Y27632 in a 30-ml spinner flask. Cells were then cultured for 72 hr in mTeSR1 and then cultured in the following differentiation media. Stage 1 (3 days): S1 media+100 ng/ml Activin A (R&D Systems; 338-AC)+3 μM Chir99021 (Stemgent; 04-0004-10) for 1 day. S1 media+100 ng/ml Activin A for 2 days. Stage 2 (3 days): S2 media+50 ng/ml KGF (Peprotech; AF-100-19). Stage 3 (1 day): S3 media+50 ng/ml KGF+200 nM LDN193189 (Reprocell; 040074)+500 nM PdBU (MilliporeSigma; 524390)+2 μM Retinoic Acid (MilliporeSigma; R2625)+0.25 μM Sant1 (MilliporeSigma; S4572)+10 μM Y27632. Stage 4 (5 days): S4 media+5 ng/mL Activin A+50 ng/mL KGF+0.1 μM Retinoic Acid+0.25 μM SANT1+10 μM Y27632. Stage 5 (7 days): S5 media+10 μM ALK5i II (Enzo Life Sciences; ALX-270-445-M005)+20 ng/mL Betacellulin (R&D Systems; 261-CE-050)+0.1 μM Retinoic Acid+0.25 μM SANT1+1 μM T3 (Biosciences; 64245)+1 μM XXI (MilliporeSigma; 595790). Stage 6 (7-35 days): ESFM.
(§1) Assays were performed by collecting ˜20-30 stage 6 clusters or cadaveric human islets, washed twice with KRB buffer (128 mM NaCl, 5 mM KCl, 2.7 mM CaCl2) 1.2 mM MgSO4, 1 mM Na2HPO4, 1.2 mM KH2PO4, 5 mM NaHCO3, 10 mM HEPES (Gibco; 15630-080), and 0.1% BSA), resuspended in 2 mM glucose KRB, and placed into transwells (Corning; 431752) in 24-well plates. Clusters were incubated at 2 mM glucose KRB for a 1 hr equilibration. The transwell was then drained and transferred into a new 2 mM glucose KRB well, discarding the old KRB solution. Clusters were again incubated for 1 hr at low glucose and then the transwell is drained and transferred into a new 2, 5.6, 11.1, or 20 mM glucose KRB well, retaining the old 2 mM glucose KRB. Clusters were then incubated for 1 hr at high glucose and then the transwell was drained and the old glucose KRB was retained. The retained KRB was run with the Human Insulin Elisa (ALPCO; 80-INSHU-E10.1) to quantify insulin secretion. The cells were single-cell dispersed by TrypLE treatment, counted on a Vi-Cell XR, and viable cell counts used to normalize insulin secretion.
Clusters were single-cell dispersed with TrypLE, fixed with 4% paraformaldehyde for 30 min at 4° C., blocked and permeabilized with staining buffer for 30 min at 4° C., incubated with primary antibodies in staining buffer overnight at 4° C., incubated with secondary antibodies in staining buffer for 2 hr at 4° C., resuspended in staining buffer, and analyzed on an LSRII (BD Biosciences) or X-20 (BD Biosciences). Dot plots and percentages were generated using FlowJo. All antibodies were used at 1:300 dilution except where noted. The antibodies used were: rat-anti-C-peptide, mouse-anti-nkx6.1 (1:100), mouse-anti-glucagon, rabbit-anti-somatostatin, rabbit-anti-chromogranin A (1:1000), goat-anti-pdx1, anti-rat-alexa fluor 488, anti-mouse-alexa fluor 647 (Invitrogen; a31571), anti-rabbit-alexa fluor 647 (Invitrogen; a31573), anti-goat-alexa fluor 647 (Invitrogen; a21447), anti-rabbit-alexa fluor 488 (Invitrogen; a21206).
RNA was extracted using the RNeasy Mini Kit (Qiagen; 74016) with DNase treatment (Qiagen; 79254), and cDNA was synthesized using High Capacity cDNA Reverse Transcriptase Kit (Applied Biosystems; 4368814). Real-time PCR reactions were performed in PowerUp SYBR Green Master Mix (Applied Biosystems; A25741) on a StepOnePlus (Applied Biosystems) and analyzed using ΔΔCt methodology. TBP was used as a normalization gene.

[4] = system: Stage 6 cells
Method: as §1

[5] = system: plated stage 4 cells; test: qRT-PCR and immunostaining of plated stage 4 cells treated with cytoskeletal modifying compounds; format: cell-based, human
From the text: For experiments investigating the effects of plating pancreatic progenitors, cells were differentiated with the suspension protocol for stages 1-3. At the end of stage 3, clusters were single cell dispersed with TrypLE and plated onto tissue culture plates coated with various ECM proteins at 0.625×10^6 cells/cm^2. Differentiation media for the remainder of this hybrid protocol were the same as for the suspension protocol with the exception that Y-27632 and Activin A were omitted on days 2-5 of stage 4. Additional compounds were added as indicated in each experiment: 1 μM latrunculin A (Cayman Chemical, 10010630), 1 μM latrunculin B (Cayman Chemical, 10010631), 1 μM cytochalasin D (MilliporeSigma, C2618), 1 μM jasplakinolide (Cayman Chemical, 11705), 10 μM blebbistatin (MilliporeSigma, 203389), 1 μM nocodazole (Cayman Chemical, 13857), 1 μM Y-15 (Cayman Chemical, 14485), 10 μM Y-27632, and 10 μM GDC-0994 (Selleckchem, S7554). A variety of ECM coatings were initially tested with this plating methodology, including collagen I (Corning, 354249), collagen IV (Corning, 354245), fibronectin (Gibco, 33016-015), vitronectin (Gibco, A14700), matrigel (Corning, 356230), gelatin (Fisher, G7-500), and laminins 111, 121, 211, 221, 411, 421, 511, and 521 (Biolamina, LNKT-0201). All subsequent experiments with this hybrid protocol were performed on collagen I.
Brightfield images were taken with a Leica DMi1 inverted light microscope, and fluorescence images were captured with a Nikon A1Rsi confocal microscope. For immunostaining, cells were fixed with 4% paraformaldehyde (PFA) at room temperature for 30 minutes. They were then blocked and permeabilized for 45 minutes at room temperature with an immunocytochemistry (ICC) solution consisting of 0.1% triton X (Acros Organics, 327371000) and 5% donkey serum (Jackson Immunoresearch, 017000-121) in PBS (Corning, 21-040-CV). Samples were then incubated with primary antibodies diluted in ICC solution overnight at 4° C., washed with ICC, incubated with secondary antibodies diluted in ICC for 2 hours at room temperature, and stained with DAPI for 15 minutes at room temperature. For histological sectioning, whole SC-β cell clusters generated with the planar protocol and mouse kidneys containing transplanted cells were fixed overnight with 4% PFA at 4° C. The in vitro clusters were also embedded in Histogel (Thermo Scientific, hg-4000-012). These samples were then paraffin-embedded and sectioned by the Division of Comparative Medicine (DCM) Research Animal Diagnostic Laboratory Core at Washington University in St. Louis. Paraffin was removed from sectioned samples with Histoclear (Thermo Scientific, C78-2-G), and antigen retrieval was carried out in a pressure cooker (Proteogenix, 2100 Retriever) with 0.05 M EDTA (Ambion, AM9261). Slides were blocked and permeabilized with ICC solution for 45 minutes, incubated with primary antibodies in ICC solution overnight at 4° C., and incubated with secondary antibodies for 2 hours at room temperature. Slides were then sealed with DAPI Fluoromount-G (SouthernBiotech, 0100-20).
RNA was extracted from either whole clusters or cells directly on the plate with the RNeasy Mini Kit (Qiagen, 74016). Samples were treated with a DNAse kit (Qiagen, 79254) during extraction. The High Capacity cDNA Reverse Transcriptase Kit (Applied Biosystems, 4368814) was used to synthesize cDNA on a thermocycler (Applied Biosystems, A37028). The PowerUp SYBR Green Master Mix (Applied Biosystems, A25741) was used on a StepOnePlus (Applied Biosystems), and real time PCR results were analyzed using a ΔΔCt methodology. TBP and GUSB were both used as housekeeping genes. Primer sequences were as follows.

exendin-4
insulin secretion during second challenge, secretagogue added to 20 mM glucose [1]: increased insulin secretion over high glucose alone

Cc1cccc(-c2[nH]ncc2-c2ccc3ncccc3n2)n1 [Alk5i, Alk5 inhibitor type II]
phosphorylated SMAD [2]: diminished phosphorylated SMAD
insulin secretion after further 7 d in Stage 6 ([3]; Alk5i during Stage 5, Stage 6 without Alk5i nor cluster resizing, 20 mM glucose): substantially higher in cells treated with Alk5i during Stage 5
INS and GCG gene expression ([3]; Alk5i omission during Stage 5): decreased with Alk5i omission
SST expression ([3]; Alk5i omission during Stage 5): slightly increased
fraction of cells co-expressing C-peptide and NKX6-1 ([3]; omitting Alk5i during Stage 5): decreased by omitting Alk5i
fraction of cells differentiated to a C-peptide+ phenotype ([3]; omitting Alk5i during Stage 5): decreased by omitting Alk5i
fraction of cells differentiated to endocrine cells (CHGA+) ([3]; omitting Alk5i during Stage 5): unchanged
expression of NKX6-1 and PDX1 ([3]; without Alk5i during Stage 5): reduced without Alk5i
GSIS in a static assay with inclusion during Stage 6 ([4]; Alk5i during Stage 6): relatively weak but statistically significant GSIS
insulin secretion in the dynamic GSIS assay ([4]; Alk5i during Stage 6): dramatically reduced insulin secretion
proinsulin/insulin ratio ([4]; DMSO versus Alk5i during Stage 6): remained similar
fraction of cells expressing pancreatic endocrine markers, including C-peptide ([4]; DMSO- versus Alk5i-treated cells, Stage 6): remained similar
insulin content ([4]; removal of Alk5i during Stage 6 versus treatment): increased with removal of Alk5i

N=C(N)NCCC[C@H](N)C(=O)O [L-Arginine]
insulin secretion during second challenge, secretagogue added to 20 mM glucose [1]: largest increases

C/C1=C\[C@H](C)C[C@H](C)OC(=O)C[C@H](c2ccc(O)cc2)NC(=O)[C@@H](Cc2c(Br)[nH]c3ccccc23)N(C)C(=O)[C@H](C)NC(=O)[C@@H](C)C1 [jasplakinolide]
premature NEUROG3 expression in reaggregated clusters ([5]; added to pancreatic progenitors during reaggregation after dispersion): attenuated premature NEUROG3 expression

C/C1=C/C(=O)O[C@@H]2C[C@@H](CC[C@H](C)/C=C\CC1)O[C@@](O)([C@@H]1CSC(=O)N1)C2 [Latrunculin B]
dose response of NEUROG3 expression ([5]; added during stage 4, qRT-PCR): increased NEUROG3 expression in a dose-dependent manner
concentration required relative to latrunculin A to achieve a similar effect on NEUROG3 ([5]; plated HUES8, stage 4): ~10 ×

[Cl-].[K+] [KCl]
response of Stage 6 cells to KCl challenge compared to human islets ([1]; 30 mM KCL with 20 mM glucose): stronger than in human islets
insulin secretion during second challenge, secretagogue added to 20 mM glucose [1]: largest increases

CCCCNC(=O)NS(=O)(=O)c1ccc(C)cc1 [Tolbutamide]
insulin secretion during second challenge, secretagogue added to 20 mM glucose [1]: increased insulin secretion over high glucose alone

CC(C)Cn1c(=O)n(C)c(=O)c2[nH]cnc21 [3-isobutyl-1-methylxanthine]
insulin secretion during second challenge, secretagogue added to 20 mM glucose [1]: increased insulin secretion over high glucose alone
